This note sets out measurements from ChEMBL document CHEMBL1153635, “Identification of [4-[4-(methylsulfonyl)phenyl]-6-(trifluoromethyl)-2-pyrimidinyl] amines and ethers as potent and selective cyclooxygenase-2 inhibitors” (Bioorg Med Chem Lett, 2009).

In series [1] the target is T1, Prostaglandin G/H synthase 2 (Homo sapiens, UniProt P35354).
T1 sequence (P35354 whole entry): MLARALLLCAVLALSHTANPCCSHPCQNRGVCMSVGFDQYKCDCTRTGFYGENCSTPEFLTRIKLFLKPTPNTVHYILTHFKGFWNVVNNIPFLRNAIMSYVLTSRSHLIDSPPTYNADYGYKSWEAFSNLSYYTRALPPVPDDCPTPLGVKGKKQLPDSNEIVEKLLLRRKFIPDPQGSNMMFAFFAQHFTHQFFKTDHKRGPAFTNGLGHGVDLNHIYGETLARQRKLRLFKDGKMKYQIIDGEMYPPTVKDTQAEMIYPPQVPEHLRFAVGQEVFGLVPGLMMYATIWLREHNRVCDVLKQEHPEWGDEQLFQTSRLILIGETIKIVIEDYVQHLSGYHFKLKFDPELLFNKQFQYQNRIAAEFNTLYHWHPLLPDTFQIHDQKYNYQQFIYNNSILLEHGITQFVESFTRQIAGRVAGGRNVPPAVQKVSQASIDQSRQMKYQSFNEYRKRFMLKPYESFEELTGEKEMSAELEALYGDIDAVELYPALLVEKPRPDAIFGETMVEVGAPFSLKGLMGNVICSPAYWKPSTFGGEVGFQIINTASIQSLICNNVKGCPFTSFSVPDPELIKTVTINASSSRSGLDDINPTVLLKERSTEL
Format: cell-based, COS.

The target of series [2] is T2, Prostaglandin G/H synthase 1 (Homo sapiens, UniProt P23219). The series can be described thus: biochemical. Format: cell-based, COS.
The test system of series [3] is COS. Nature of the series: Selectivity ratio of IC50 for human COX1 to IC50 for human COX2 expressed in african green monkey COS cells. Format: cell-based.
The target of series [4] is T2, Prostaglandin G/H synthase 1. In kind it is tissue-based, Blood.
In series [5] the target is T1, Prostaglandin G/H synthase 2. In kind it is tissue-based, Blood.
Description: Inhibition of COX2 in human whole blood assessed as inhibition of lipopolysaccharide-stimulated PGE2 production after 24 hrs by enzyme immunoassay
Series [6] is filed under the species Homo sapiens. The series can be described thus: Selectivity ratio of IC50 for COX1 to IC50 for COX2 in human whole blood. Format: tissue-based.
Series [7] concerns the target T2, Prostaglandin G/H synthase 1. Nature of the series: biochemical. In kind it is cell-based, Sf9.
The nature of series [8]: Selectivity ratio of IC50 for human COX1 to IC50 for human COX2 expressed in baculovirus-infected SF9 cells.
Series [9] addresses T1, Prostaglandin G/H synthase 2. The series can be described thus: biochemical. In kind it is cell-based, Sf9.
A short description of series [10]: in vivo. To be noted: rat, brain / blood.
Description: Ratio of drug level in brain to blood in rat

Calls of active or inactive are those of the source. The rule behind the calls is not given here.

T2 sequence (P23219 whole entry): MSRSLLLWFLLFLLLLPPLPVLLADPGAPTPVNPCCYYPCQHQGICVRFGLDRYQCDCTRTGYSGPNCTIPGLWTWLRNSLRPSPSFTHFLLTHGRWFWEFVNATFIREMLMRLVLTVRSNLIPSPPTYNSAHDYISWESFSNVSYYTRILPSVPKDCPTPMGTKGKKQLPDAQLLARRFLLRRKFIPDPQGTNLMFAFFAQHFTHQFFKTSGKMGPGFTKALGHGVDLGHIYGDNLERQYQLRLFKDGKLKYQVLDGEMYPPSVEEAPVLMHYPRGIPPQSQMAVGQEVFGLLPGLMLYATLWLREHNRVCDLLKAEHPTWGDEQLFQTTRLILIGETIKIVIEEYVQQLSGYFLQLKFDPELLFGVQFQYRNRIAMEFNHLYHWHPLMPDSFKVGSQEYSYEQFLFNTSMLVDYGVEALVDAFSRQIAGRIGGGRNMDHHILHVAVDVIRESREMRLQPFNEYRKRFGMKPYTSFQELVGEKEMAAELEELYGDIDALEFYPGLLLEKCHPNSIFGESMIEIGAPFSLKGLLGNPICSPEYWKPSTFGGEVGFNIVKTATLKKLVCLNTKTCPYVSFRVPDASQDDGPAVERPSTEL

Consider `CS(=O)(=O)c1ccc(-c2cc(C(=O)O)nc(NC3CCCCC3)n2)cc1`, for which the IC50 in [1] is more than 10000 nM; in series [2], more than 100000 nM. Moreover, in series [3], the “Ratio IC50” value was “inactive”.
The like results for `CS(=O)(=O)c1ccc(-c2cc(N)nc(NC3CCCCC3)n2)cc1` were, in that order, more than 10000 nM, more than 100000 nM and “inactive”.
In the case of `CS(=O)(=O)c1ccc(-c2cc(OCC(F)(F)F)nc(NC3CCCCC3)n2)cc1`, the IC50 in [1] worked out at 16 nM; in series [2], 6320 nM. Further, in [3], the Ratio IC50 turned out to be 395.
With `CS(=O)(=O)c1ccc(-c2cc(C(F)(F)F)nc(NCc3ccccc3)n2)cc1`, the IC50 in series [4] is 39300 nM; in series [5] it was 8 nM; in series [2] it was more than 100000 nM. The Ratio IC50 in series [6] was 4910; in series [3], more than 400000.
Consider `CC(C)Oc1nc(-c2ccc(S(C)(=O)=O)cc2)cc(C(F)(F)F)n1`, for which the IC50 in series [7] came to 52600 nM; in series [9], 63 nM. Moreover, the Ratio IC50 in series [8] came out at 834.
Consider `CS(=O)(=O)c1ccc(-c2ccnc(NC3CCCCC3)n2)cc1`, for which the figures for the IC50 in [1] and in series [2] were more than 10000 nM and more than 100000 nM, respectively. For the same molecule, the “Ratio IC50” value in series [3] was “inactive”.
Turning to `Cc1ccc(N(C)c2nc(-c3ccc(S(C)(=O)=O)cc3)cc(C(F)(F)F)n2)cc1`, the IC50 in [1] was 3 nM; in series [2], more than 74200 nM. In addition, the Ratio IC50 in series [3] was more than 24700.
Consider `Cc1cnc(NC2CCCCC2)nc1-c1ccc(S(C)(=O)=O)cc1`, for which the IC50 in series [1] was more than 10000 nM; in [2], more than 100000 nM. In addition, the “Ratio IC50” value in series [3] is “inactive”.
The corresponding values for `CS(=O)(=O)c1ccc(-c2cc(C(F)(F)F)nc(N)n2)cc1` are 272 nM, more than 100000 nM and more than 368.
For the molecule `CS(=O)(=O)c1ccc(-c2cc(C(F)(F)F)nc(OCC3CCCCC3)n2)cc1`, the IC50 in series [7] is more than 100000 nM; in series [9], 45 nM. Moreover, the Ratio IC50 in [8] was more than 2220.
On to `CS(=O)(=O)c1ccc(-c2cc(C(F)(F)F)nc(OCC3CCCCCC3)n2)cc1`, for which the “Ratio IC50” value in series [8] was “inactive”. Further, in series [9], inhibition was half-maximal at 1030 nM (IC50).
On to `CCCNc1nc(-c2ccc(S(C)(=O)=O)cc2)cc(C(F)(F)F)n1`, for which the IC50 in series [1] is 5 nM; in series [2], more than 100000 nM. Further, the Ratio IC50 in series [3] is more than 2000.
Turning to `Cc1cccc(Oc2nc(-c3ccc(S(C)(=O)=O)cc3)cc(C(F)(F)F)n2)c1`, the IC50 in series [7] was 4360 nM; in [9] it was less than 10 nM. Besides, the Ratio IC50 in series [8] was more than 436.
As to `Cc1cc(-c2ccc(S(C)(=O)=O)cc2)nc(NC2CCCCC2)n1`, the IC50 in series [1] is 1680 nM; in series [2], more than 100000 nM. The Ratio IC50 in series [3] was more than 59.
On to `CCCCNc1nc(-c2ccc(S(N)(=O)=O)cc2)cc(C(F)(F)F)n1`, for which the IC50 in series [1] was less than 1.4 nM; in series [2], 700 nM. Further, in [3], the Ratio IC50 was more than 500.
Regarding `CS(=O)(=O)c1ccc(-c2cc(C(F)(F)F)nc(NC3CCCCC3)n2)cc1`, the IC50 was 11600 nM in series [4], 62 nM in series [5] and more than 58400 nM in [2]. The Ratio IC50 in series [6] is 187; in [3], more than 117000.
With `Cc1ccc(-c2ncc(Cl)cc2-c2ccc(S(C)(=O)=O)cc2)cn1` [ETORICOXIB], the IC50 in series [4] was more than 100000 nM.
`CS(=O)(=O)c1ccc(-c2cc(C(F)(F)F)nc(Nc3ccc(F)cc3)n2)cc1`: the half-inhibitory concentration (IC50) in series [1] was 7.2 nM; in series [2], more than 65800 nM. Moreover, the Ratio IC50 in series [3] is more than 9140.
As for `CS(=O)(=O)c1ccc(-c2cc(C(F)(F)F)nc(OC3CCC3)n2)cc1`, the IC50 was 19000 nM in [7] and less than 10 nM in series [9]. Further, in series [8], the Ratio IC50 was more than 1900.
For the molecule `Cc1ccc(Oc2nc(-c3ccc(S(C)(=O)=O)cc3)cc(C(F)(F)F)n2)cc1`, the Ratio IC50 in series [8] is more than 375.
As for `CS(=O)(=O)c1ccc(-c2cc(C(F)(F)F)nc(OC3CCCCCC3)n2)cc1`, the figures for the IC50 in [7] and in series [9] were 1920 nM and less than 10 nM, respectively. Besides, the Ratio IC50 in series [8] is more than 192.
As to `CS(=O)(=O)c1ccc(-c2cc(C(F)(F)F)nc(NCC3CCOCC3)n2)cc1`, the IC50 was 5 nM in [1] and 100000 nM in series [2]. Also, the Ratio IC50 in series [3] was 20000.
On to `CS(=O)(=O)c1ccc(-c2cc(C(F)(F)F)nc(OC3CCCC3)n2)cc1`, for which the values for the IC50 in series [7] and in [9] were 4040 nM and less than 10 nM, respectively. In addition, the Ratio IC50 in series [8] was more than 404.
For `CS(=O)(=O)c1ccc(-c2cc(C(N)=O)nc(NC3CCCCC3)n2)cc1`, the IC50 in series [1] was more than 10000 nM; in series [2] it was more than 100000 nM. For the same molecule, the “Ratio IC50” value in series [3] was “inactive”.
Turning to `CS(=O)(=O)c1ccc(-c2cc(C(F)(F)F)nc(NC3CCOCC3)n2)cc1`, the 50% inhibitory concentration (IC50) in [2] was more than 91600 nM. Also, the Ratio IC50 in series [3] is more than 5090.
As for `CS(=O)(=O)c1ccc(-c2cc(C(F)(F)F)nc(Nc3ccccc3)n2)cc1`, the IC50 in series [1] was 5.6 nM; in [2], more than 100000 nM. For the same molecule, the Ratio IC50 in series [3] is more than 17900.
With `Cc1ccc(CNc2nc(-c3ccc(S(C)(=O)=O)cc3)cc(C(F)(F)F)n2)cc1`, the IC50 in series [1] is less than 10 nM; in series [2] it was more than 100000 nM. Further, in series [3], the Ratio IC50 is more than 10000.
For `CC(C)(C)Oc1nc(-c2ccc(S(C)(=O)=O)cc2)cc(C(F)(F)F)n1`, the IC50 was determined as 52000 nM in series [7] and 33 nM in [9]. Besides, in series [8], the Ratio IC50 came to 1580.
For the molecule `NS(=O)(=O)c1ccc(-c2cc(C(F)(F)F)nc(NC3CCCCC3)n2)cc1`, the IC50 worked out at 2.4 nM in series [1] and 167 nM in series [2]. For the same molecule, the Ratio IC50 in series [3] was determined as 69.5.
`CS(=O)(=O)c1ccc(C2=C(c3ccccc3)C(=O)OC2)cc1` [ROFECOXIB] came in with a Kp in [10] of 0.8.
For the molecule `CCCCNc1nc(-c2ccc(S(C)(=O)=O)cc2)cc(C(F)(F)F)n1`, the IC50 in series [4] is more than 96200 nM; in series [1] it was 1.3 nM; in series [5] it was 70 nM; in series [2] it was more than 100000 nM. The figures for the Ratio IC50 in [6] and in series [3] were more than 1370 and more than 76900, respectively.
For the molecule `CS(=O)(=O)c1ccc(-c2cc(C(F)(F)F)nc(NC3CCNCC3)n2)cc1`, the IC50 was more than 10000 nM in series [1] and more than 100000 nM in [2]. The “Ratio IC50” value in series [3] was “inactive”.
In the case of `Cc1ccc(Nc2nc(-c3ccc(S(C)(=O)=O)cc3)cc(C(F)(F)F)n2)cc1`, the IC50 in series [1] is 11 nM; in series [2], more than 100000 nM. In addition, the Ratio IC50 in series [3] is more than 9090.
`CS(=O)(=O)c1ccc(-c2cc(C(F)(F)F)nc(NCC3CCCCC3)n2)cc1`: the IC50 in series [1] was 29 nM; in series [2] it was more than 100000 nM. Also, the Ratio IC50 in series [3] is more than 3450.
The like results for `Cc1c(-c2ccc(S(C)(=O)=O)cc2)nc(NC2CCCCC2)nc1C(F)(F)F` were, in that order, more than 10000 nM, more than 100000 nM and “inactive”.
Turning to `CS(=O)(=O)c1ccc(-c2cc(C(F)(F)F)nc(OC3CCCCCCC3)n2)cc1`, the values for the IC50 in series [7] and in [9] were 3000 nM and less than 10 nM, respectively. Besides, the Ratio IC50 in [8] was more than 300.
